{"source": "paper PMC5874699", "about": "“Antimicrobial and Antibiofilm Activity of UP-5, an Ultrashort Antimicrobial Peptide Designed Using Only Arginine and Biphenylalanine” (Pharmaceuticals, 2018)", "key": {"[1]": {"tested_on": "Staphylococcus aureus (ATCC 29213)", "type": "cell-based", "conditions": "S. aureus ATCC 29213, antibiotic alone, triplicate", "from_the_text": "(§1) All bacterial susceptibility, biofilm, and synergistic assays of peptides, antibiotics, and peptides-antibiotics combinations used bacterial strains obtained from the American Type Tissue Culture Collection (ATCC, Manassas, VA, USA) that states the mechanism of resistance for each strain according to ATCC number. Gram-positive bacteria were represented by five strains, the wild type strain Staphylococcus aureus (ATCC 29213) and methicillin-resistant S. aureus (MRSA) (ATCC 33591) in addition to clinically isolated strains S. aureus (ATCC BAA-41& 43300) and Enterococcus faecalis (ATCC BAA-2316). The Gram-negative bacteria strains were represented by wild type strains of Escherichia coli (ATCC 25922 & 35218) and Pseudomonas aeruginosa (ATCC 27853) as well as the clinically isolated multidrug-resistant strain P. aeruginosa (ATCC BAA-2114). The bacteria were cultured onto Muller Hinton Agar (Scharlab, S.L, Barcelona, Spain). Mueller Hinton Broth (Oxoid Ltd., Basingstoke, UK) was used to prepare all bacterial suspensions and to dissolve the peptides and the antibiotics. The assay was performed in sterile 96-well polypropylene microtiter plates.\n(§2) All bacterial susceptibility assays were conducted according to the microbroth dilution method outlined by the Clinical and Laboratory Standards Institute (CLSI) guidelines.\n(§3) Briefly, pre-sterilized MHB was used as a growth medium for organisms obtained from stock media with glycerol. Bacterial cells were grown overnight in MHB and diluted to 10^6 CFU/mL in the same medium prior to use. For peptide, serial concentrations in the range of 0.5–100 μM were prepared. Then, 50 μL of each peptide concentration and 50 µL of diluted bacterial suspension were added to each well of a 96-well microtiter plate. Peptide solutions were prepared by dissolving the peptide in sterile MHB. Then, the plates were incubated overnight in a humidified atmosphere, and at 37 °C. Bacterial growth was determined by measuring the optical density (OD) at λ = 600 nm using an ELISA plate reader (Epoch, BioTek, Winooski, VT, USA) and the minimum inhibitory concentration (MIC) was determined.\n(§4) As described in the previous section, the MIC and MBC values of antibiotics employed in this study were determined against subjected bacterial strains via preparing different concentrations of each antibiotic."}, "S. aureus (ATCC 29213)": {"tested_on": "S. aureus (ATCC 29213)", "assay": "Broth microdilution checkerboard, UP-5 with antibiotics", "type": "cell-based, Staphylococcus aureus", "from_the_text": "as §1\n(§5) According to the broth microdilution checkerboard technique, the MIC and MBC values of peptide-antibiotics combinations against wild type and multidrug resistant bacterial strains were determined. Serial concentrations of peptide and each antibiotic were prepared in the range of 0.005–100 μM. In each well of a 96-well microtiter plate, 25 μL of each peptide concentration were added to 25 μL of each antibiotic concentration which is followed by adding 50 μL of diluted bacterial suspension (10^6 CFU/mL) to each well. The prepared concentrations of peptide and each antibiotic were arranged into rows and columns, respectively, in a 96-well microtiter plate according the checkerboard technique. Then as described previously (see Section 2.4.1), the procedure was followed. All MIC and MBC determinations of all assays were made in triplicate.\n(§6) The fractional inhibitory concentration (FIC) is defined as the inhibitory concentration of the antimicrobial combination divided by that of the single antimicrobial component. To calculate FIC index for peptide-antibiotic combinations, the following equation was used:(1) FIC index=MIC of drug X in combination/MIC of drug X alone+MIC of drug Y in combination/MIC of drug Y alone\n(§7) The FIC indices were interpreted as follows: ≤0.5: synergistic activity, 0.5–1: additive activity, 1–4 indifferent, >4: antagonism. Interpretation and assessment of the FIC indices were performed according to the broth microdilution checkerboard technique."}, "S. aureus (ATCC BAA-41) [2]": {"tested_on": "S. aureus (ATCC BAA-41)", "assay": "Broth microdilution checkerboard, UP-5 with antibiotics", "type": "cell-based, Staphylococcus aureus", "from_the_text": "as §1, §5, §6, §7"}, "S. aureus (ATCC 43300) [3]": {"tested_on": "S. aureus (ATCC 43300)", "assay": "Broth microdilution checkerboard, UP-5 with antibiotics", "type": "cell-based, Staphylococcus aureus", "from_the_text": "as §1, §5, §6, §7"}, "S. aureus (ATCC 33591)": {"tested_on": "S. aureus (ATCC 33591)", "assay": "Broth microdilution checkerboard, UP-5 with antibiotics", "type": "cell-based, Staphylococcus aureus", "from_the_text": "as §1, §5, §6, §7"}, "[4]": {"tested_on": "methicillin-resistant S. aureus (MRSA) (ATCC 33591)", "assay": "MIC/MBC, microbroth dilution (CLSI)", "type": "cell-based, Staphylococcus aureus", "conditions": "S. aureus ATCC 33591, antibiotic alone, triplicate", "from_the_text": "as §1, §2, §3, §4"}, "[5]": {"tested_on": "P. aeruginosa (ATCC BAA-2114)", "type": "cell-based, Pseudomonas aeruginosa", "conditions": "P. auroginosa ATCC BAA-2114, antibiotic alone, triplicate", "from_the_text": "as §1, §2, §3, §4"}, "[6]": {"tested_on": "P. aeruginosa (ATCC BAA-2114)", "assay": "Broth microdilution checkerboard, UP-5 with antibiotics", "type": "cell-based, Pseudomonas aeruginosa", "from_the_text": "as §1, §5, §6, §7"}, "S. aureus (ATCC BAA-41) [7]": {"tested_on": "S. aureus (ATCC BAA-41)", "type": "cell-based, Staphylococcus aureus", "conditions": "S. aureus ATCC BAA-41, antibiotic alone, triplicate", "from_the_text": "as §1, §2, §3, §4"}, "S. aureus (ATCC 43300) [8]": {"tested_on": "S. aureus (ATCC 43300)", "type": "cell-based, Staphylococcus aureus", "conditions": "S. aureus ATCC 43300, antibiotic alone, triplicate", "from_the_text": "as §1, §2, §3, §4"}}}
{"compound": "CO[C@H]1/C=C/O[C@@]2(C)Oc3c(C)c(O)c4c(O)c(c(/C=N/N5CCN(C)CC5)c(O)c4c3C2=O)NC(=O)/C(C)=C\\C=C\\[C@H](C)[C@H](O)[C@@H](C)[C@@H](O)[C@@H](C)[C@H](OC(C)=O)[C@@H]1C", "note": "[Rifampicin, rifampicin]", "values": [{"measurement": "Antibiotics MBC Alone", "setting": "[1]; 99.9% killing", "result": 0.025, "unit": "µM"}, {"measurement": "Antibiotics MIC Alone", "setting": "[1]; microbroth dilution", "result": 0.025, "unit": "µM"}, {"measurement": "Effect of the combination according to FIC value", "setting": "S. aureus (ATCC 29213); S. aureus (ATCC 29213), antibiotic-UP-5 combination", "result": "indifferent (1–4 indifferent)"}, {"measurement": "Antibiotics Reduction in MIC (%)", "setting": "S. aureus (ATCC 29213); S. aureus ATCC 29213, antibiotic MIC in combination with UP-5 compared to MIC alone", "result": "<50", "unit": "%"}, {"measurement": "Antibiotics MIC in Combination", "setting": "S. aureus (ATCC 29213); S. aureus ATCC 29213, antibiotic in combination with UP-5, checkerboard, triplicate", "result": 0.025, "unit": "µM"}, {"measurement": "Effect of the combination according to FIC value", "setting": "S. aureus (ATCC BAA-41) [2]; S. aureus (ATCC BAA-41), antibiotic-UP-5 combination", "result": "indifferent (1–4 indifferent)"}, {"measurement": "Antibiotics Reduction in MIC (%)", "setting": "S. aureus (ATCC BAA-41) [2]; S. aureus ATCC BAA-41, antibiotic MIC in combination with UP-5 compared to MIC alone", "result": 60, "unit": "%"}, {"measurement": "Antibiotics MIC in Combination", "setting": "S. aureus (ATCC BAA-41) [2]; S. aureus ATCC BAA-41, antibiotic in combination with UP-5, checkerboard, triplicate", "result": 0.002, "unit": "µM"}, {"measurement": "Effect of the combination according to FIC value", "setting": "S. aureus (ATCC 43300) [3]; S. aureus (ATCC 43300), antibiotic-UP-5 combination", "result": "synergistic (≤0.5: synergistic activity)"}, {"measurement": "Antibiotics Reduction in MIC (%)", "setting": "S. aureus (ATCC 43300) [3]; S. aureus ATCC 43300, antibiotic MIC in combination with UP-5 compared to MIC alone", "result": 87.5, "unit": "%"}, {"measurement": "Effect of the combination according to FIC value", "setting": "S. aureus (ATCC 33591); S. aureus (ATCC 33591), antibiotic-UP-5 combination", "result": "synergistic (≤0.5: synergistic activity)"}, {"measurement": "Antibiotics Reduction in MIC (%)", "setting": "S. aureus (ATCC 33591); S. aureus ATCC 33591, antibiotic MIC in combination with UP-5 compared to MIC alone", "result": 87.5, "unit": "%"}, {"measurement": "Antibiotics MIC in Combination", "setting": "S. aureus (ATCC 33591); S. aureus ATCC 33591, antibiotic in combination with UP-5, checkerboard, triplicate", "result": 0.005, "unit": "µM"}, {"measurement": "Antibiotics MBC Alone", "setting": "[4]; 99.9% killing", "result": 0.04, "unit": "µM"}, {"measurement": "Antibiotics MIC Alone", "setting": "[4]; microbroth dilution", "result": 0.04, "unit": "µM"}, {"measurement": "Antibiotics MBC Alone", "setting": "[5]; 99.9% killing", "result": 50, "unit": "µM"}, {"measurement": "Antibiotics MIC Alone", "setting": "[5]; microbroth dilution", "result": 50, "unit": "µM"}, {"measurement": "Effect of the combination according to FIC value", "setting": "[6]; P. aeruginosa (ATCC 2114 as printed), antibiotic-UP-5 combination", "result": "synergistic (≤0.5: synergistic activity)"}, {"measurement": "Antibiotics MIC in Combination", "setting": "[6]; P. auroginosa ATCC BAA-2114, antibiotic in combination with UP-5, checkerboard, triplicate", "result": 0.25, "unit": "µM"}, {"measurement": "Antibiotics MBC Alone", "setting": "S. aureus (ATCC BAA-41) [7]; 99.9% killing", "result": 0.005, "unit": "µM"}, {"measurement": "Antibiotics MIC Alone", "setting": "S. aureus (ATCC BAA-41) [7]; microbroth dilution", "result": 0.005, "unit": "µM"}, {"measurement": "Antibiotics MBC Alone", "setting": "S. aureus (ATCC 43300) [8]; 99.9% killing", "result": 1, "unit": "µM"}, {"measurement": "Antibiotics MIC Alone", "setting": "S. aureus (ATCC 43300) [8]; microbroth dilution", "result": 1, "unit": "µM"}]}
